We go through 13 compounds from PMC10283044, “Structure–Activity Relationship of Lower Chlorinated Biphenyls and Their Human-Relevant Metabolites for Astrocyte Toxicity” (Chemical Research in Toxicology, 2023).

Broadly, the viability is a read-out of living cells in per cent, often relative to untreated cells. As usually defined, the IC50 is the concentration needed to halve the response being measured.

A short description of data set [1]: MTT cell viability assay in mouse primary glial cells. The class given is cell-based, C57BL/6 mouse. As to conditions: mouse, primary mixed glial cells, MTT, primary glial cells from C57BL/6 mice. The method, then:
(§1) Primary glial cell cultures obtained from PND1-3 C57BL/6 mice pups were provided by Dr. Tjalkens at Colorado State University, Fort Collins, CO, U.S.A. The primary astroglial cell cultures were grown and maintained, as described previously in MEM medium supplemented with 10% FBS and 1% P/S.[37]
(§2) All the LC-PCB exposures or their corresponding human-relevant metabolite exposures were performed in serum-free, phenol-red-free cell culture media suited for the respective cell type described above. The exposures were within a concentration range of 0.5–50 μM for 24 h at 37 °C under humidified conditions at 5% CO2. DMSO was used as a negative control. All stock solutions of the test compounds were prepared in DMSO. The final DMSO concentration was maintained at <0.5% for all the exposures. After the 24 h incubation, either an MTT assay for cell viability or an LDH assay for cytotoxicity was employed.
(§3) C6 or primary cells were seeded in 24-well cell culture plates (Corning Inc., Corning, NY, U.S.A; Cat No. 3526) and allowed to grow until 80–90% confluent. The cells were then exposed to test compounds, as described above (0, 0.5, 1, 5, 10, 20, and 50 μM). The MTT assay was performed, as described[38] with modifications. After 24 h of exposure, the media was removed, and cells were washed with HBSS once. Two hundred microliters of 0.5 mg/mL MTT solution prepared in HBSS/Glucose (Glucose used at 1 mg/mL HBSS) was added to each well of the 24-well plate. The cells were incubated with the MTT solution for 45 min to 1 h at 37 °C under humidified conditions at 5% CO2. After incubation, the MTT solution was removed, and the water-insoluble purple formazan product was dissolved in 400 μL DMSO. This DMSO solution was added to a clear, flat bottom 96-well polystyrene plate (Cat. No. 12-565-501, Thermo Fisher Scientific, Waltham, MA. U.S.A.) in duplicate and read at 570 and 650 nm using a microplate reader (SpectraMax 190, Molecular Devices, San Jose, CA. U.S.A.). The mean percent cell viability was calculated as follows: [drawing 1]
On the technique in general: Tetrazolium dyes change colour on reduction, which living cells bring about.

The subject of another data set is rat primary astrocytes. Nature of the data set: MTT cell viability assay in rat primary astrocytes. Conditions: 24 h. The class given is cell-based, Sprague-Dawley rat.
Excerpt: Sprague-Dawley male and female rats were utilized to obtain cultures of sex-specific primary cortical cells. All animal experiments were approved by the Institutional Animal Care and Uses Committee (IACUC) at the University of Iowa. The rat pups were sex-segregated as males and females based on visual examination and later confirmed by the presence of a Y chromosome-specific gene Sry by PCR. The gene for beta-actin, Actb, was used as a control. The primer sequences used for PCR amplification were as described,[35] which yielded a 317-bp product for Sry and a 220-bp product for Actb. Both products were confirmed by gel electrophoresis on a 1% agarose gel after PCR amplification was completed. As previously described, with modifications, astrocytes were obtained from the cortex of PND2/3 rats.[36] Briefly, cortical sections were dissociated in minimal essential medium with Earle’s salts for suspension cultures (S-MEM; Life Technologies) with 1% penicillin/streptomycin and 1.5 U/mL dispase (Life Technologies) for 60 min, aliquoting and replacing dissociation media every 10 min, adding 8000 U/mL DNase I in water after the first digestion. The enzymatic digestion was stopped by adding a growth medium containing minimal essential medium with Earle’s salts (MEM; Life Technologies) with 1% P/S and 10% heat-inactivated horse serum. After digestion, cells were centrifuged for 10 min at 1000 × g at 4 °C, and the pellet was resuspended in a growth medium. Cells were assessed for count and viability and then plated at 10,000 viable cells/cm^2 in T75 flasks. Flasks were shaken after 24 h, and media was replaced to begin removing microglia and then repeated every 2–3 days. Flow cytometry utilizing GFAP and IBA1 antibodies was run at passage 2 to confirm the elimination of microglia from the primary astrocyte cultures. The rat primary astrocyte cultures were maintained in MEM with 1% P/S and 10% heat-inactivated horse serum at 37 °C under humidified conditions at 5% CO2. The detailed protocol for astrocyte isolation of sex segregated rat pups and further validation of purity of astrocyte cultures is published and can be accessed at: dx.doi.org/10.17504/protocols.io.e6nvwjry7lmk/v1.
as §2, §3

The next data set has as its system C6 cells. Kind of data set: MTT cell viability assay in C6 cells. Type of data set: cell-based. As to conditions: 0.5 to 50 μM; for toxicity (cell viability) in the tested concentration range: C6 cells, 24 h; for IC50: Rattus norvegicus, C6 cell line, 24 h exposure. The method, then:
C6 cells (CCL-107, Lot No. 63821786) were purchased from the American Type Culture Collection (ATCC, Manassas, VA, U.S.A.). This cell line has been previously used as an in vitro astrocyte model for toxicity[22] and is morphologically and functionally similar to primary astrocyte cultures.[34] The C6 cells were grown and maintained at 37 °C under humidified conditions at 5% CO2 in DMEM/F12 medium supplemented with 10% FBS and 1% P/S. The cells were maintained at a seeding density of 1 × 10^6 cells in 100 mm tissue culture-treated dishes (Cat. No. 430167, Corning, Somerville, MA, U.S.A.). All the experiments for the current study utilizing C6 cells have been performed within passage 2 and passage 20.
as §2, §3

The test system of data set [2] is mouse primary mixed glial cells. Kind of data set: MTT cell viability assay in mouse primary glial cells. As to conditions: Glial cell; mouse primary mixed glial cells (about 80% astrocytes, 20% microglia), MTT assay, 24 h. Type of data set: cell-based, C57BL/6 mouse. The method, then:
as §1, §2, §3

[3] abbreviates: Astrocyte, sex segregated rat primary astrocytes, female, read-out: IC50 females.
Where [4] appears, read: Astrocyte, sex segregated rat primary astrocytes, male, read-out: IC50 males.
The mark [5] stands for this setting: read-out: sulfated metabolite IC50.
Setting [6] is: read-out: hydroxylated metabolite IC50.

Structures can show the parent of a compound that is named as a salt. Where two headings read alike, the source gives them in different places.

For `O=S(=O)(O)Oc1cc(Cl)c(-c2cc(Cl)ccc2Cl)cc1Cl` [4-OH-PCB52 sulfate], the viability at 24 h, 5 µM in data set [1] was above 150%. Besides, the viability at 24 h, 10 μM in data set [1] (next higher concentration after 5 μM) amounted to 20%. Besides, the IC50 in the data set with rat primary astrocytes (setting [3]) is 6.9 µM; with rat primary astrocytes (setting [4]), 7 µM; in the data set on C6 cells (setting [5]) it was 8.4 µM. For the same compound, the “toxicity (cell viability) in the tested concentration range” value with C6 cells was “reduced cell viability”.
On to `Oc1cc(Cl)c(-c2cc(Cl)ccc2Cl)cc1Cl` [4-OH-PCB52], for which the viability at 24 h, 1 µM in data set [1] (1 μM) was determined as 150%. For the same compound, the viability at 24 h, 5 µM in data set [1] was around 0%. Further, the IC50 with rat primary astrocytes (setting [3]) worked out at 4.4 µM; in the data set with rat primary astrocytes (setting [4]), 4.9 µM; in the data set on C6 cells (setting [6]) it was 2.2 µM.
`Clc1ccc(-c2ccccc2)cc1` [PCB3, 4-chlorobiphenyl]: the “toxicity (cell viability) in the tested concentration range” value in the data set with C6 cells is on record as “non-toxic”. The IC50 in the data set on C6 cells (read-out: parent compound IC50) was above 50 µM.
The matching figures for `Clc1cccc(-c2cccc(Cl)c2)c1` [PCB11, 3,3′-dichlorobiphenyl]: “non-toxic” and above 50 µM.
`Clc1cccc(-c2ccc(Cl)cc2Cl)c1` [PCB25, 2,3′,4-trichlorobiphenyl]: the concentration for half-maximal inhibition (IC50) with C6 cells (read-out: parent compound IC50) was 10 µM.
Turning to `Clc1ccc(-c2ccc(Cl)cc2Cl)cc1` [PCB28, 2,4,4′-trichlorobiphenyl], the IC50 in the data set on C6 cells (read-out: parent compound IC50) was around 25 µM.
In the case of `Clc1ccc(Cl)c(-c2cc(Cl)ccc2Cl)c1` [PCB52, 2,2′,5,5′-tetrachlorobiphenyl], the IC50 in data set [2] was found to be 9.8 µM; in the data set with rat primary astrocytes (setting [3]) it was 14.4 µM; in the data set with rat primary astrocytes (setting [4]), 15.3 µM; in the data set on rat primary astrocytes (mixed rat primary astrocyte cultures (>95% astrocytes), read-out: IC50), 11.8 µM; with C6 cells (read-out: parent compound IC50), 8.8 µM.
As to `Oc1ccc(-c2ccc(Cl)cc2)cc1` [PCB 3 hydroxylated metabolite], the half-inhibitory concentration (IC50) in the data set with C6 cells (setting [6]) was 21.4 µM.
Turning to `O=S(=O)(O)Oc1ccc(-c2ccc(Cl)cc2)cc1` [PCB 3 sulfated metabolite], in the data set on C6 cells (setting [5]), the IC50 was above 50 µM.
As for `Oc1ccc(-c2cccc(Cl)c2)cc1Cl` [PCB 11 hydroxylated metabolite], the IC50 in the data set with C6 cells (setting [6]) came to 13 µM.
`O=S(=O)(O)Oc1ccc(-c2cccc(Cl)c2)cc1Cl` [PCB 11 sulfated metabolite]: in the data set with C6 cells (setting [5]), the IC50 is above 50 µM.
Consider `Oc1ccc(-c2ccc(Cl)cc2Cl)cc1Cl` [PCB 25 hydroxylated metabolite], for which the IC50 in the data set on C6 cells (setting [6]) was found to be 5.3 µM.
In the case of `O=S(=O)(O)Oc1ccc(-c2ccc(Cl)cc2Cl)cc1Cl` [PCB 25 sulfated metabolite], in the data set on C6 cells (setting [5]), the IC50 was above 50 µM.
